# Assay results published in ChEMBL document CHEMBL1909046, “DrugMatrix in vitro pharmacology data”.
# Assays:
# Cytochrome P450 2E1 = Cytochrome P450 2E1 (Homo sapiens, UniProt P05181); conditions: bti-tn-5b1-4; further: in other assays of this panel Not Active means under 50% inhibition at 10 µM
# [1] = target: T1, 5-hydroxytryptamine receptor 2C (Homo sapiens, UniProt P28335); experiment: DRUGMATRIX: Serotonin (5-Hydroxytryptamine) 5-HT2C radioligand binding (ligand: [3H] Mesulergine); assay type: cell membranes, CHO-K1, Membrane; conditions: cho-k1; Not Active = under 50% inhibition at 10 µM
# T1 sequence (P28335 whole entry): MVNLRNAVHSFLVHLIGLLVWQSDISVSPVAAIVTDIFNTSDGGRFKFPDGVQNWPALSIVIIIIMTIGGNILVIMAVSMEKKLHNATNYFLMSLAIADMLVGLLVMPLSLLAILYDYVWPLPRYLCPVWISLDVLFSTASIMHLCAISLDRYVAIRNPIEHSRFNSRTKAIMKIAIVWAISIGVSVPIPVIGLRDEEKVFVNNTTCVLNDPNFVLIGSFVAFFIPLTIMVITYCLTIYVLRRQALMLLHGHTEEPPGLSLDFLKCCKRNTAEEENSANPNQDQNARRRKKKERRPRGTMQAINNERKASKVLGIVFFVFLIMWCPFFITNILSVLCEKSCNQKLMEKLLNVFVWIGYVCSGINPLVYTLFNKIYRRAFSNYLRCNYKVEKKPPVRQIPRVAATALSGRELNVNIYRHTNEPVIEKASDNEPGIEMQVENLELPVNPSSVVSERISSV
# [2] = target: T2, 3-hydroxy-3-methylglutaryl-coenzyme A reductase (Homo sapiens, UniProt P04035); set-up: species or system Escherichia coli;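 further: enzyme inhibition assay of HMG-CoA reductase using radiolabeled [14C]HMG-CoA as substrate; in other assays of this panel Not Active means under 50% inhibition at 10 µM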
# T2 sequence (P04035 whole entry): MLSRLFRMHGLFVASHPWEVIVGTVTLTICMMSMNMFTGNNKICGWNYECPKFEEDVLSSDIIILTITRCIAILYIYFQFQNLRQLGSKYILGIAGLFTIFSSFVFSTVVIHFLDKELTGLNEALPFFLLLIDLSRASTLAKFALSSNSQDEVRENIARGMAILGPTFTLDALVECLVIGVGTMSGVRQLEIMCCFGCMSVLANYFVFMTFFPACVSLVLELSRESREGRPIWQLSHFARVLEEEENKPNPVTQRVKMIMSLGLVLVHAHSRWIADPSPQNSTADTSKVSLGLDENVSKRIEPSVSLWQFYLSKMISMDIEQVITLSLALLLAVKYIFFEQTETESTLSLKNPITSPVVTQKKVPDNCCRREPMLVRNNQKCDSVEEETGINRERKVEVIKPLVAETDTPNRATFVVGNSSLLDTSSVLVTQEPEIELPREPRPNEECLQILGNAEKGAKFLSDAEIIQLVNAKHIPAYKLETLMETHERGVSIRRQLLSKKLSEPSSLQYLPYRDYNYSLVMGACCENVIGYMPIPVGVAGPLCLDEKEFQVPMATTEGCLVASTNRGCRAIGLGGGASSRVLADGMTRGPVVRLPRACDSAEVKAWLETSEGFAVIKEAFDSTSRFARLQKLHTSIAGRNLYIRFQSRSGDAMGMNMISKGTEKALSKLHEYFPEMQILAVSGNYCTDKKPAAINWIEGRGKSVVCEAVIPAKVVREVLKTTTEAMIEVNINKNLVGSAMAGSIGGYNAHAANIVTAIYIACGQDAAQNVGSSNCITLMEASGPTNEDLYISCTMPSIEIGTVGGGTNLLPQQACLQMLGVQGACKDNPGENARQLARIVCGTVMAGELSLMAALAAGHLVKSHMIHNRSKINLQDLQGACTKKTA
# Melanocortin receptor 4 = Melanocortin receptor 4 (Homo sapiens, UniProt P32245); assay type: cell membranes, Membrane; conditions: hek293; further: in other assays of this panel Not Active means under 50% inhibition at 10 µM
# Chain of Melanocortin receptor 4 (P32245 whole entry): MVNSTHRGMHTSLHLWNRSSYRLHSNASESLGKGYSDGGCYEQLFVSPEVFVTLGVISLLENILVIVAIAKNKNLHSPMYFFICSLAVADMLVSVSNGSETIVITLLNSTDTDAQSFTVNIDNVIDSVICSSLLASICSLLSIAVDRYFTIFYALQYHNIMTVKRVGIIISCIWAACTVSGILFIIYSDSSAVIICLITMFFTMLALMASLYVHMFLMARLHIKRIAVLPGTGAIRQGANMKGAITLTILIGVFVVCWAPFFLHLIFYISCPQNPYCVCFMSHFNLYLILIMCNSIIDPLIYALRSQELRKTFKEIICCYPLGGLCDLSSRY
# [3] = DRUGMATRIX: Calcium Channel Type L, Dihydropyridine radioligand binding (ligand: [3H] Nitrendipine); assay type: cell membranes, Rattus norvegicus, Wistar, Cerebral cortex, Membrane; conditions: Not Active = under 50% inhibition at 10 µM
# [4] = target: Aldo-keto reductase family 1 member B1 (Rattus norvegicus, UniProt P07943); assay type: tissue-based, Lens of camera-type eye;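 further: inhibition of aldose reductase enzyme activity, measured with DL-glyceraldehyde as the substrate; in other assays of this panel Not Active means under 50% inhibition at 10 µM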
# Cytochrome P450 2C19 = Cytochrome P450 2C19 (Homo sapiens, UniProt P33261); conditions: bti-tn-5b1-4; further: in other assays of this panel Not Active means under 50% inhibition at 10 µM
# Chain of Cytochrome P450 2C19 (P33261 whole entry): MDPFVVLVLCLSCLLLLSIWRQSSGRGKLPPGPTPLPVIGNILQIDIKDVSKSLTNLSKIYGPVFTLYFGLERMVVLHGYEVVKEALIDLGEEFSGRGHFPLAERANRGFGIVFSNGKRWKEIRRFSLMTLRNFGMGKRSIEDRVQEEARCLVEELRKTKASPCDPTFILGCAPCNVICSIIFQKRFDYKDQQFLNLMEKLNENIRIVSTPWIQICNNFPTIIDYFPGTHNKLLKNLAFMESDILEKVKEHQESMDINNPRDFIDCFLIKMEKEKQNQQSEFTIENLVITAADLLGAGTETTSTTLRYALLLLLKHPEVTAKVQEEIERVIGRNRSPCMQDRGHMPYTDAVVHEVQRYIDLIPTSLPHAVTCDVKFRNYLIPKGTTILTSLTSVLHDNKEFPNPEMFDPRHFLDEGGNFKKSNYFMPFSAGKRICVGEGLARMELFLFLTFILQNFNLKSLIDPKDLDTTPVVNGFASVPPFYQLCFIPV
# [5] = target: T3, Muscarinic acetylcholine receptor M2 (Homo sapiens, UniProt P08172); assay type: cell membranes, CHO-K1, Membrane; conditions: cho-k1; further: in other assays of this panel Not Active means under 50% inhibition at 10 µM
# T3 sequence (P08172 whole entry): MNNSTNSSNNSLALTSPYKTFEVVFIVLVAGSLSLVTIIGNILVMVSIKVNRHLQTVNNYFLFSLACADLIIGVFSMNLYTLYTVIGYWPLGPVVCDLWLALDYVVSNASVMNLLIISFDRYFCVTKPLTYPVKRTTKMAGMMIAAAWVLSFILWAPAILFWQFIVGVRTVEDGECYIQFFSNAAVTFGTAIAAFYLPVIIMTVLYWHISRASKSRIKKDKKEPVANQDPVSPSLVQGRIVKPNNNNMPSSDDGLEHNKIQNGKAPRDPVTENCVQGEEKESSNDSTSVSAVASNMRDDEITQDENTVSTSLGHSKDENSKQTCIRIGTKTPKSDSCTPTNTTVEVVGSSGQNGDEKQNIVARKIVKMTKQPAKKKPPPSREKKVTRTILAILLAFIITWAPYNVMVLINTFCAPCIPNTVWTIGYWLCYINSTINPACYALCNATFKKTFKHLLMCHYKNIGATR
# [6] = target: 5-hydroxytryptamine receptor 6 (Homo sapiens, UniProt P50406); assay type: cell membranes, HeLa, Membrane; conditions: hela; further: in other assays of this panel Not Active means under 50% inhibition at 10 µM
# Chain of 5-hydroxytryptamine receptor 6 (P50406 whole entry): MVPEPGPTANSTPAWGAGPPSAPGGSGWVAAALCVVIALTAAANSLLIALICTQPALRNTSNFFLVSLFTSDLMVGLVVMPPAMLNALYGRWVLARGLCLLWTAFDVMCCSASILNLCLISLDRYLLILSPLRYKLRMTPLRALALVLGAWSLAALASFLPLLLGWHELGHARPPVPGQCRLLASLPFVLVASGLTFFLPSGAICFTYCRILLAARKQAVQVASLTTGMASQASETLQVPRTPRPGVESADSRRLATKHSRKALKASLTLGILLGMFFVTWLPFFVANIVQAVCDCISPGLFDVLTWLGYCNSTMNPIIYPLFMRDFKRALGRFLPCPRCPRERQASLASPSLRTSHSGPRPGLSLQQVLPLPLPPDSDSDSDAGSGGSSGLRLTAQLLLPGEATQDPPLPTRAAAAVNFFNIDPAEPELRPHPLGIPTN
# [7] = target: Tyrosine-protein kinase Fyn (Homo sapiens, UniProt P06241); experiment: biochemical; assay type: cell-based, Insect cells; conditions: insect cells
# Chain of Tyrosine-protein kinase Fyn (P06241 whole entry): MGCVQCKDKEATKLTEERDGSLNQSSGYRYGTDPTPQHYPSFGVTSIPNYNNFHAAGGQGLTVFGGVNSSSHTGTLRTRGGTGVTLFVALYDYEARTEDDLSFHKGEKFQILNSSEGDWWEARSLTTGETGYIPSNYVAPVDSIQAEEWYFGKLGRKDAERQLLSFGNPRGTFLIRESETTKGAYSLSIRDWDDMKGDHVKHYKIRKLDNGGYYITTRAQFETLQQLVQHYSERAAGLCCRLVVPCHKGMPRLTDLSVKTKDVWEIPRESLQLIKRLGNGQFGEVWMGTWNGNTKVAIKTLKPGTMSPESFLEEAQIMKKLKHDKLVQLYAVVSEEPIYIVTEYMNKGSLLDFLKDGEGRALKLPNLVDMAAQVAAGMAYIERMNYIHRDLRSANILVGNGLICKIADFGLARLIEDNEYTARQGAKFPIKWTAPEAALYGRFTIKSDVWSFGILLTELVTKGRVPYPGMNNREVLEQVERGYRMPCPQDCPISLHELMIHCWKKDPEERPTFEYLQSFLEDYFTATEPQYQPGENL
# [8] = target: T4, Alpha-2A adrenergic receptor (Homo sapiens, UniProt P08913); assay type: cell membranes, Sf9, Membrane; conditions: sf9; further: in other assays of this panel Not Active means under 50% inhibition at 10 µM
# T4 sequence (P08913 whole entry): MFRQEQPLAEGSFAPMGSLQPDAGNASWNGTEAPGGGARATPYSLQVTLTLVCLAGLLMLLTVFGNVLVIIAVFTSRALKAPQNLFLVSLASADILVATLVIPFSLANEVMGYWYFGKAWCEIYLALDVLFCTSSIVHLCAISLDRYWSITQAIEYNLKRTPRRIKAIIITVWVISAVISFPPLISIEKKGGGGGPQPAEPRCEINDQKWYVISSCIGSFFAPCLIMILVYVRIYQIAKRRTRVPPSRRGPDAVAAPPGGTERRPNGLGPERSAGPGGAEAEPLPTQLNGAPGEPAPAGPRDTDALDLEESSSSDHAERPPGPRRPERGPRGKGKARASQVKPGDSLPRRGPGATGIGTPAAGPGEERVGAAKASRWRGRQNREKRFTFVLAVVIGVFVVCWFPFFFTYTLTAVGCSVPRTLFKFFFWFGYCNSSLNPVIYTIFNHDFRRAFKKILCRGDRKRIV
# Chain of Cytochrome P450 2E1 (P05181 whole entry): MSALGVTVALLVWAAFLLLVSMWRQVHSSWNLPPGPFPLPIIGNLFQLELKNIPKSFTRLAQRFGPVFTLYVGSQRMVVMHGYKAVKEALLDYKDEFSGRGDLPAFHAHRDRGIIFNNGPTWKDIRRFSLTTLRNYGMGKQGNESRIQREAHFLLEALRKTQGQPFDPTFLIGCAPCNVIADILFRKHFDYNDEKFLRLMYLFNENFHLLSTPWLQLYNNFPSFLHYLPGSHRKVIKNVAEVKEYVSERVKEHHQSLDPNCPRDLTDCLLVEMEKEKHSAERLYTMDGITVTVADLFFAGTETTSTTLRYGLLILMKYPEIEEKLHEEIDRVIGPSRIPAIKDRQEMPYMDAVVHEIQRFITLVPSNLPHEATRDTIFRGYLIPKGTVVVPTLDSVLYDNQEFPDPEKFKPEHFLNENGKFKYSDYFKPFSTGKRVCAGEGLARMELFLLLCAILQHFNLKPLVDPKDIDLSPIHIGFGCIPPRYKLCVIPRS
Compound,IC50 (Cytochrome P450 2E1),Ki (Cytochrome P450 2E1),IC50 [1],Ki [1],IC50 [2],Ki [2],IC50 (Melanocortin receptor 4),Ki (Melanocortin receptor 4),IC50 [3],Ki [3],IC50 [4],Ki [4],IC50 (Cytochrome P450 2C19),Ki (Cytochrome P450 2C19),IC50 [5],Ki [5],IC50 [6],Ki [6],IC50 [8],Ki [8],further results
CISPLATIN,Not Active,Not Active,Not Active,Not Active,Not Active,Not Active,Not Active,Not Active,Not Active,Not Active,Not Active,Not Active,Not Active,Not Active,Not Active,Not Active,Not Active,Not Active,Not Active,Not Active,IC50 ([7]; read-out: IC50): 4.77 µM
OXALIPLATIN,Not Active,Not Active,Not Active,Not Active,Not Active,Not Active,Not Active,Not Active,Not Active,Not Active,Not Active,Not Active,Not Active,Not Active,Not Active,Not Active,Not Active,Not Active,Not Active,Not Active,IC50 [7]: Not Active; Ki [7]: Not Active
O=C1CCc2cc(OCCCCc3nnnn3C3CCCCC3)ccc2N1 [CILOSTAZOL],Not Active,Not Active,Not Active,–,Not Active,–,Not Active,–,Not Active,Not Active,Not Active,–,Not Active,Not Active,Not Active,–,Not Active,–,Not Active,–,IC50 [7]: Not Active
